Results from patent US8168651B2, “Protein kinase modulators” (Cylene Pharmaceuticals, Inc., priority 2008, dated 2012).

What was measured:
recombinant human CK2 = recombinant human CK2 (Homo sapiens (Human), UniProt P68400); test: CK2 assay (cell-free, 33P-ATP filter plate); format: biochemical; conditions: 500 nM compound, cell-free assay; read-out: CK2: % inh 500 nM
[1] = system: HCT-116 human colorectal carcinoma cells; test: Cell-proliferation assay using Alamar Blue dye; format: cell-based; conditions: Homo sapiens, HCT-116, second HCT-116 column (c8); read-out: HCT-116 (uM) cell proliferation modulatory activity;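 note: cells exposed to compound for about 4 days, then Alamar Blue added and dye fluorescence read after about 4 h, compared with medium-only control wells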
recombinant human PIM1 = recombinant human PIM1 (Homo sapiens (Human), UniProt P11309); test: PIM-1 kinase activity in cell-free in vitro assay; format: biochemical; conditions: cell-free assay; for inhibition at 0.5 µM: 500 nM compound, read-out: PIM-1: % inh 500 nM
K-562 = test: Cell proliferation modulatory activity, K-562; format: cell-based; conditions: Homo sapiens, K562; K-562 cells
MV-4-11 = test: Cell proliferation modulatory activity, MV-4-11; format: cell-based; conditions: Homo sapiens, MV4-11; MV-4-11 cells

recombinant human PIM1, sequence (P11309 whole entry): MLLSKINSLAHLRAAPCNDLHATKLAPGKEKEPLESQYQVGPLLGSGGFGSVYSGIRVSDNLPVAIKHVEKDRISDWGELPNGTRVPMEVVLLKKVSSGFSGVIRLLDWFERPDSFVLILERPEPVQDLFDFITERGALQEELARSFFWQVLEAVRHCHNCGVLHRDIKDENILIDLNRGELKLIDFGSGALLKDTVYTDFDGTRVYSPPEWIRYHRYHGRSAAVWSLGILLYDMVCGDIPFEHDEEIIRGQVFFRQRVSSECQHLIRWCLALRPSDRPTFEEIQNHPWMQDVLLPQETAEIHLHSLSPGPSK
recombinant human CK2, sequence (P68400 whole entry): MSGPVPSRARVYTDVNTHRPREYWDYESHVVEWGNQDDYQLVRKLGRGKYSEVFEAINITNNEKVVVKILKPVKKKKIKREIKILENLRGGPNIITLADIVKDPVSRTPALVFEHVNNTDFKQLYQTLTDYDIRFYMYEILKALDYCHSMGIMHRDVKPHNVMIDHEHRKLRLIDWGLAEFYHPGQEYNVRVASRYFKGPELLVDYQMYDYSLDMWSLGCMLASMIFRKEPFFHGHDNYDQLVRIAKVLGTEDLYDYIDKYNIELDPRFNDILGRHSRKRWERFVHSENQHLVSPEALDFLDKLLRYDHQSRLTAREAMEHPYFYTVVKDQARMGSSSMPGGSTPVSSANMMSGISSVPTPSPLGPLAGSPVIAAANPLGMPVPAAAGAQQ
recombinant human CK2, sequence (P67870 whole entry partner): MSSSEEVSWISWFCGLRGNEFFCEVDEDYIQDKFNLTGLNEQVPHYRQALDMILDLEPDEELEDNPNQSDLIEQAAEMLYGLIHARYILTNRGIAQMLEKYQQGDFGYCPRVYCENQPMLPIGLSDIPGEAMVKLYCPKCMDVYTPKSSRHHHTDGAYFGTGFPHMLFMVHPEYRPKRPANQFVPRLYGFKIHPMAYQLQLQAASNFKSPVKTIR

| SMILES | inhibition at 0.5 µM (recombinant human CK2) [%] | IC50 [1] [µM] | inhibition at 0.5 µM (recombinant human PIM1) [%] | IC50 (K-562) [µM] | IC50 (MV-4-11) [µM] | IC50 (recombinant human PIM1) [µM] |
| --- | --- | --- | --- | --- | --- | --- |
| COCCNC(=O)c1ccc2c(c1)nc(NCCN(C)C)c1ccsc12 | -12.9 | > 10 | -3.76 | > 10 | > 10 | – |
| CN1CCCCC1CNc1nc2cc(-c3nnn[nH]3)ccc2c2sccc12 (stereo not shown) | 32.8 | > 10 | 90.9 | > 10 | > 10 | 0.064 |
| N#Cc1ccc2c(c1)[nH]c(=O)c1cscc12 | -0.336 | > 10 | -26.7 | > 10 | > 10 | – |
| N#Cc1ccc2c(c1)nc(Cl)c1cscc12 | -6.52 | > 10 | -20.3 | > 10 | 1.81 | – |
| N#Cc1ccc2c(c1)nc(Nc1cccc(Cl)c1)c1cscc12 | -9.4 | > 10 | -32.8 | > 10 | > 10 | – |
| N#Cc1ccc2c(c1)nc(Nc1ccc(F)cc1)c1cscc12 | 9.21 | > 10 | -6.77 | > 10 | > 10 | – |
| N#Cc1ccc2c(c1)nc(Nc1cccc(F)c1)c1cscc12 | -20.1 | > 10 | -28.6 | 8.04 | > 10 | – |
| N#Cc1ccc2c(c1)nc(Nc1ccc(Cl)cc1)c1cscc12 | -2.49 | > 10 | -35.8 | > 10 | > 10 | – |
| N#Cc1ccc2c(c1)nc(Nc1ccc(F)c(Cl)c1)c1cscc12 | -8.36 | > 10 | -26.3 | > 10 | > 10 | – |
| N#Cc1ccc2c(c1)nc(Nc1cccc(C(F)(F)F)c1)c1cscc12 | -2.65 | > 10 | -33.2 | > 10 | > 10 | – |
| Fc1ccc(Nc2nc3cc(-c4nnn[nH]4)ccc3c3cscc23)cc1Cl | 51.1 | > 10 | 14.2 | > 10 | 5.71 | – |
| Fc1ccc(Nc2nc3cc(-c4nnn[nH]4)ccc3c3cscc23)cc1 | 37.6 | > 10 | 30.6 | > 10 | 5.47 | – |
| Clc1ccc(Nc2nc3cc(-c4nnn[nH]4)ccc3c3cscc23)cc1 | 39.5 | > 10 | 15.2 | > 10 | 6.44 | – |
| Fc1cc(Cl)cc(Nc2nc3cc(-c4nnn[nH]4)ccc3c3cscc23)c1 | 57.3 | > 10 | 11.4 | > 10 | > 10 | – |
| Clc1cccc(Nc2nc3cc(-c4nnn[nH]4)ccc3c3cscc23)c1 | 63.3 | > 10 | 17.9 | > 10 | > 10 | – |
| Fc1cccc(Nc2nc3cc(-c4nnn[nH]4)ccc3c3cscc23)c1 | 52.6 | > 10 | 14 | > 10 | > 10 | – |
| Fc1cc(F)cc(Nc2nc3cc(-c4nnn[nH]4)ccc3c3cscc23)c1 | 52.6 | > 10 | 11.1 | > 10 | > 10 | – |
| FC(F)(F)c1cccc(Nc2nc3cc(-c4nnn[nH]4)ccc3c3cscc23)c1 | 23.1 | > 10 | -6.51 | > 10 | > 10 | – |
| CCN1CCC[C@@H]1CNc1nc2cc(-c3nnn[nH]3)ccc2c2sccc12 | 78.1 | > 10 | 89.9 | > 10 | > 10 | 0.065 |
| CCN1CCC[C@H]1CNc1nc2cc(-c3nnn[nH]3)ccc2c2sccc12 | 59.8 | > 10 | 84.1 | > 10 | > 10 | 0.118 |
| CN(C)CCNc1nc2cc(-c3nnn[nH]3)ccc2c2sc(-c3ccccc3)cc12 | 0.269 | > 10 | -14.8 | > 10 | > 10 | – |
| N#Cc1ccc2c(c1)nc(Cl)c1sccc12 | -11.5 | > 10 | -23.9 | > 10 | > 10 | – |
| Clc1cccc(Nc2nc3cc(-c4nnn[nH]4)ccc3c3ccsc23)c1 | 56.2 | > 10 | 31.9 | > 10 | 4.47 | – |
